Source: PubChem BioAssay (NCI)
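A five-concentration, 48-hour dose response in 96-well plates underlies each endpoint, interpolated linearly between surrounding concentrations. The concentration for 50% growth inhibition is given as GI50. At the TGI there is no net growth.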

Legend:
Experiment in all cases: growth of human tumour cells (NCI), 48 h
[1] = system: HCC-2998 colon
[2] = system: K-562 leukemia
[3] = system: NCI-H226 lung
[4] = system: SK-MEL-2 melanoma
[5] = system: KM12 colon
[6] = system: MOLT-4 leukemia
[7] = system: NCI-H522 lung
[8] = system: HCT-116 colon
[9] = system: TK-10 renal
[10] = system: 786-0 renal
[11] = system: OVCAR-8 ovarian
[12] = system: UACC-62 melanoma
[13] = system: SF-295 CNS
[14] = system: ACHN renal
[15] = system: SK-MEL-5 melanoma
[16] = system: SNB-75 CNS
[17] = system: CCRF-CEM leukemia
[18] = system: HOP-62 NSCLC
[19] = system: SK-OV-3 ovarian
[20] = system: NCI-H460 lung
[21] = system: SK-MEL-28 melanoma
[22] = system: RXF 393 renal
[23] = system: HL-60(TB) leukemia
[24] = system: PC-3 prostate
[25] = system: COLO 205 colon
[26] = system: SW-620 colon
[27] = system: UACC-257 melanoma
[28] = system: HCT-15 colon
[29] = system: MALME-3M melanoma
[30] = system: MCF7 breast
[31] = system: NCI-H23 lung
[32] = system: A549 NSCLC
[33] = system: SF-539 CNS
[34] = system: MDA-MB-231 breast
[35] = system: IGROV1 ovarian
[36] = system: LOX IMVI melanoma
[37] = system: OVCAR-5 ovarian
[38] = system: OVCAR-3 ovarian
[39] = system: MDA-MB-435
[40] = system: HT29 colon
[41] = system: T-47D breast
[42] = system: SNB-19 CNS
[43] = system: RPMI-8226 leukemia
[44] = system: DU-145 prostate
[45] = system: HOP-92 NSCLC
[46] = system: UO-31 renal
[47] = system: OVCAR-4 ovarian
[48] = system: U251 CNS
[49] = system: SN12C renal
[50] = system: NCI/ADR-RES ovarian
[51] = system: CAKI-1 renal
[52] = system: M14 melanoma
[53] = system: A498 renal
[54] = system: BT-549 breast
[55] = system: HS 578T breast
[56] = system: EKVX NSCLC
[57] = system: SF-268 CNS

## CCn1c2ccccc2c2cc(/C=C(/C#N)C(N)=S)ccc21
[1]
  GI50: 2.88 µM
  TGI: 9 µM
[2]
  GI50: 12.8 µM
  TGI: > 100 µM
[3]
  TGI: 0.0236 µM
[4]
  GI50: 31.3 µM
  TGI: > 100 µM
[5]
  GI50: 15.2 µM
  TGI: 38.5 µM
[6]
  GI50: 12.5 µM
  TGI: 58.6 µM
[7]
  GI50: 26.9 µM
  TGI: > 68.4 µM
[8]
  GI50: 5.79 µM
  TGI: 20.9 µM
[9]
  GI50: 0.216 µM
  TGI: 1.82 µM
[10]
  GI50: 16.1 µM
  TGI: 39.4 µM
[11]
  GI50: 20.5 µM
  TGI: 56.4 µM
[12]
  GI50: 0.219 µM
  TGI: 1.51 µM
[13]
  GI50: 4.64 µM
  TGI: 24.2 µM
[14]
  GI50: 19.6 µM
  TGI: 64 µM
[15]
  GI50: 7.26 µM
  TGI: 20.2 µM
[16]
  GI50: 18.8 µM
  TGI: 46.1 µM
[17]
  GI50: 23.4 µM
  TGI: > 100 µM
[18]
  GI50: 1.21 µM
  TGI: 17.7 µM
[19]
  GI50: 36.7 µM
  TGI: > 62.1 µM
[20]
  GI50: 0.443 µM
  TGI: 12.2 µM
[21]
  GI50: 17.7 µM
  TGI: 47.2 µM
[22]
  GI50: 16.5 µM
  TGI: 39 µM
[23]
  GI50: 74.4 µM
  TGI: > 100 µM
[24]
  GI50: 18.3 µM
  TGI: > 59.4 µM
[25]
  GI50: 13.2 µM
  TGI: > 45.7 µM
[26]
  GI50: 9.06 µM
  TGI: 25.1 µM
[27]
  GI50: 3.11 µM
  TGI: > 21.4 µM
[28]
  GI50: 18.7 µM
  TGI: 51.6 µM
[29]
  GI50: 6.19 µM
  TGI: 48.5 µM
[30]
  GI50: 0.271 µM
  TGI: 17.8 µM
[31]
  GI50: 14.8 µM
  TGI: 35.4 µM
[32]
  GI50: 17.5 µM
  TGI: > 87.4 µM
[33]
  GI50: 14.2 µM
  TGI: 27.4 µM
[34]
  GI50: 12.1 µM
  TGI: 30.8 µM
[35]
  GI50: 0.619 µM
  TGI: 23.2 µM
[36]
  GI50: 13 µM
  TGI: 26.1 µM
[37]
  GI50: 0.0581 µM
  TGI: 0.57 µM
[38]
  GI50: 1.73 µM
  TGI: 18.2 µM
[39]
  GI50: 6.06 µM
  TGI: 29.6 µM
[40]
  GI50: 10.9 µM
  TGI: > 42.7 µM
[41]
  GI50: 4.84 µM
[42]
  GI50: 35.2 µM
  TGI: > 75.6 µM
[43]
  GI50: 35.4 µM
  TGI: > 100 µM
[44]
  GI50: 16.1 µM
  TGI: 63.6 µM
[45]
  GI50: 14.6 µM
  TGI: 46.9 µM
[46]
  GI50: 20.4 µM
  TGI: > 60.6 µM
[47]
  GI50: 1.43 µM
  TGI: 9.92 µM
[48]
  GI50: 4.85 µM
  TGI: 23.5 µM
[49]
  GI50: 11.8 µM
  TGI: 29.9 µM
[50]
  GI50: 18 µM
  TGI: 38.5 µM
[51]
  GI50: 1.12 µM
  TGI: > 35.4 µM
[52]
  GI50: 18.2 µM
  TGI: 38.8 µM
[53]
  GI50: 0.026 µM
  TGI: 0.115 µM
[54]
  GI50: 18.6 µM
  TGI: 36.6 µM
[55]
  GI50: 2.21 µM
  TGI: 9.29 µM
[56]
  GI50: 17.7 µM
  TGI: > 58.4 µM
[57]
  GI50: 16.3 µM
  TGI: 40.6 µM
